Values quoted from earlier work, collected in Sander's compilation of Henry's law constants (doi:10.1021/je049693f).
Where “and” joins values, the source holds several entries; their conditions need not be identical. Identical values can stand only once.

Test: Henry solubility constant Hcp at 298.15 K (mol/(m3 Pa))
Conditions: reference: Shen and Wania (2005); cited value

| SMILES | Henry solubility constant Hcp |
| --- | --- |
| Clc1ccc(C(c2ccc(Cl)cc2)C(Cl)(Cl)Cl)cc1 [1,1,1-trichloro-2,2-bis-(4-chlorophenyl)-ethane] | 0.91 |
| Clc1ccc(C(c2ccc(Cl)cc2)C(Cl)Cl)cc1 [1,1-dichloro-2,2-bis-(4-chlorophenyl)-ethane] | 1.5 and 2 |
| ClC(Cl)=C(c1ccc(Cl)cc1)c1ccc(Cl)cc1 [1,1-dichloro-2,2-bis-(4-chlorophenyl)-ethene] | 0.24 |
| ClC1=C(Cl)[C@]2(Cl)[C@H]3[C@H]([C@@H]4C=C[C@H]3C4)[C@@]1(Cl)C2(Cl)Cl [aldrin] | 0.067 and 0.043 |
| ClC1=C(Cl)[C@]2(Cl)[C@@H]3[C@@H](Cl)[C@@H](Cl)C[C@@H]3[C@@]1(Cl)C2(Cl)Cl [cis-chlordane] | 0.17 and 0.18 |
| ClC1=C(Cl)[C@]2(Cl)[C@@H]3[C@@H]4C[C@@H]([C@H]5O[C@@H]45)[C@@H]3[C@@]1(Cl)C2(Cl)Cl [dieldrin] | 1 and 0.91 |
| ClC1=C(Cl)[C@]2(Cl)[C@@H]3[C@H]4C[C@H]([C@@H]5O[C@H]45)[C@@H]3[C@@]1(Cl)C2(Cl)Cl [endrin] | 1.6 and 0.91 |
| ClC1=C(Cl)C2(Cl)C3C(Cl)C=CC3C1(Cl)C2(Cl)Cl (stereo not given) [heptachlor] | 0.033 and 0.026 |
| ClC1=C(Cl)C2(Cl)C3C4OC4C(Cl)C3C1(Cl)C2(Cl)Cl (stereo not given) [heptachlorepoxide] | 0.48 and 0.59 |
| ClC1=C(Cl)[C@]2(Cl)[C@H]3[C@H](Cl)[C@@H](Cl)C[C@H]3[C@@]1(Cl)C2(Cl)Cl [trans-chlordane] | 0.17 and 0.15 |
